“And” between values parts separate entries of the source, which are not always exact repeats. Equal values may be shown once. Read-outs that look alike come from different tables or passages of the source. Marks after values point to notes of the source that are not given here.
Legend:
[1] = test system: AREc32 reporter cell line (luciferase reporter under eight copies of the rat GSTA2 ARE sequence); test: AREc32 luciferase reporter activation; assay type: cell-based, human; conditions: for EC (2-fold): Homo sapiens, Arec32, concentration that increases the luminescence signal 2-fold above vehicle, 19 h treatment, read-out: AREc32 EC2X (Mean ± SD)
[2] = test system: IFNγ-induced NO production in RAW 264.7 cells; test: Nitric oxide suppression assay (IFNγ-induced NO production, Griess nitrite readout); assay type: cell-based, mouse; conditions: for IC50: 2 h pretreatment, 20 ng/mL interferon gamma 24 h, average of trials per footnote, read-out: NO IC50
[3] = Mus musculus, RAW264.7, RAW 264.7 cells

| Compound | AREc32 EC2X Relative to RTA 402 (Mean ± SD) [1] | EC (2-fold) [1] [µM] | NO IC50 Rel. to RTA 402 [2] | IC50 [2, 3] [nM] | times more active (NO IC50) than 63183 relative to RTA 402 [2] | times more active (NO IC50) than 63170 relative to RTA 402 [2] | IC50 ([2]; RAW 264.7 cells) [nM] | AREc32 Relative to CC in Same Experiment (Mean ± SD) ([1]; comparison compound CC4, average of ratios from three replicate experiments) |
| --- | --- | --- | --- | --- | --- | --- | --- | --- |
| CC1(C)CC[C@]2(CN3CC(=O)C3)CC[C@]3(C)[C@H](C(=O)C=C4[C@@]5(C)C=C(C#N)C(=O)C(C)(C)[C@@H]5CC[C@]43C)[C@@H]2C1 [Compound T29] | 1.2^e fold | 0.0133 | 1.49 ± 0.30^d fold | 6.09 ± 1.46 | – | – | – | – |
| C=CC(=O)NC[C@]12CCC(C)(C)C[C@H]1[C@H]1C(=O)C=C3[C@@]4(C)C=C(C#N)C(=O)C(C)(C)[C@@H]4CC[C@@]3(C)[C@]1(C)CC2 [Compound T16] | 0.2 ± 0.05^f fold | 0.002 ± 0.00018 | 0.21 fold and 0.21 ± 0.05^d fold | 0.37 | more than 6 times | – | – | – |
| CC1(C)CC[C@]2(CN3CCOC3)CC[C@]3(C)[C@H](C(=O)C=C4[C@@]5(C)C=C(C#N)C(=O)C(C)(C)[C@@H]5CC[C@]43C)[C@@H]2C1 [Compound T47] | 8.6^e fold | 0.122 | 7.54 ± 2.47^d fold | 17.3 ± 8.55 | – | – | – | – |
| CC1(C)CC[C@]2(N)CC[C@]3(C)[C@H](C(=O)C=C4[C@@]5(C)C=C(C#N)C(=O)C(C)(C)[C@@H]5CC[C@]43C)[C@@H]2C1 [CC4, reference compound] | – | – | 2.41 fold and 2.41 ± 0.49^b fold | 3.75 | – | – | – | – |
| CC(=O)NC[C@]12CCC(C)(C)C[C@H]1[C@H]1C(=O)C=C3[C@@]4(C)C=C(C#N)C(=O)C(C)(C)[C@@H]4CC[C@@]3(C)[C@]1(C)CC2 [Compound T3] | 0.2 ± 0.08^a fold | 0.0024 ± 0.00044 | 0.17 fold and 0.17 ± 0.04^e fold | 0.44 | – | more than 29 times | – | – |
| CC1(C)CC[C@]2(Cn3cnnc3)CC[C@]3(C)[C@H](C(=O)C=C4[C@@]5(C)C=C(C#N)C(=O)C(C)(C)[C@@H]5CC[C@]43C)[C@@H]2C1 [Compound T49] | 4.5^e fold | 0.0389 | 13.72 ± 3.47^e fold | 26.9 ± 10.5 | – | – | – | – |
| CC1(C)CC[C@]2(CN3CCOC3=O)CC[C@]3(C)[C@H](C(=O)C=C4[C@@]5(C)C=C(C#N)C(=O)C(C)(C)[C@@H]5CC[C@]43C)[C@@H]2C1 [Compound T13] | 0.5^e fold | 0.00512 | 0.65 ± 0.21^e fold | 1.74 ± 0.55 | – | – | – | – |
| CC1(C)CC[C@]2(CN3CC(F)(F)C3)CC[C@]3(C)[C@H](C(=O)C=C4[C@@]5(C)C=C(C#N)C(=O)C(C)(C)[C@@H]5CC[C@]43C)[C@@H]2C1 [Compound T27] | 1.8^e fold | 0.0266 | 8.68 ± 2.12^e fold | 17.8 ± 1.79 | – | – | – | – |
| CC1(C)CC[C@]2(N(NC(=O)OC(C)(C)C)C(=O)OC(C)(C)C)CC[C@]3(C)[C@H](C(=O)C=C4[C@@]5(C)C=C(C#N)C(=O)C(C)(C)[C@@H]5CC[C@]43C)[C@@H]2C1 [Compound T55] | – | – | 17.42 ± 0.43^e fold | 68.9 ± 10 | – | – | – | – |
| CC1(C)CC[C@]2(CN)CC[C@]3(C)[C@H](C(=O)C=C4[C@@]5(C)C=C(C#N)C(=O)C(C)(C)[C@@H]5CC[C@]43C)[C@@H]2C1 [CC2, reference compound] | 1.6 ± 0.17^g fold | 0.0161 ± 0.00081 | 1.55 fold and 1.55 ± 0.30^e fold | 3.15 | – | – | – | – |
| CC1(C)CC[C@]2(CNCCO)CC[C@]3(C)[C@H](C(=O)C=C4[C@@]5(C)C=C(C#N)C(=O)C(C)(C)[C@@H]5CC[C@]43C)[C@@H]2C1 [Compound T12] | 1.7^e fold | 0.0218 | 4.07 ± 1.08^e fold | 7.47 ± 0.85 | – | – | – | – |
| CC1(C)CC[C@]2(NC(=O)C3CC3)CC[C@]3(C)[C@H](C(=O)C=C4[C@@]5(C)C=C(C#N)C(=O)C(C)(C)[C@@H]5CC[C@]43C)[C@@H]2C1 [Compound 63236, reference compound] | – | – | 57.25 fold | – | – | – | 143 | – |
| CC1(C)CC[C@]2(n3cc(CO)nn3)CC[C@]3(C)[C@H](C(=O)C=C4[C@@]5(C)C=C(C#N)C(=O)C(C)(C)[C@@H]5CC[C@]43C)[C@@H]2C1 [Compound T42] | 1.3 ± 0.34^f fold | 0.0148 ± 0.00277 | 2.97 ± 0.47^d fold | 12.4 ± 3.92 | – | – | – | 0.490 ± 0.057 |
| Cc1cc(C)n(C[C@]23CCC(C)(C)C[C@H]2[C@H]2C(=O)C=C4[C@@]5(C)C=C(C#N)C(=O)C(C)(C)[C@@H]5CC[C@@]4(C)[C@]2(C)CC3)n1 [Compound T22] | 3.7^e fold | 0.0445 | 5.29 ± 1.29^d fold | 9.18 ± 1.72 | – | – | – | – |
| CNC(=O)N(C)C[C@]12CCC(C)(C)C[C@H]1[C@H]1C(=O)C=C3[C@@]4(C)C=C(C#N)C(=O)C(C)(C)[C@@H]4CC[C@@]3(C)[C@]1(C)CC2 [Compound T9] | 0.5 ± 0.20^a fold | 0.0072 ± 0.00077 | 0.38 ± 0.15^e fold | 0.7 ± 0.18 | – | – | – | – |
| CN1CCN(C[C@]23CCC(C)(C)C[C@H]2[C@H]2C(=O)C=C4[C@@]5(C)C=C(C#N)C(=O)C(C)(C)[C@@H]5CC[C@@]4(C)[C@]2(C)CC3)C1=O [Compound T15] | 0.5^e fold | 0.00607 | 0.64 ± 0.26^d fold | 1.18 ± 0.5 | – | – | – | – |

| Compound | AREc32 EC2X Relative to RTA 402 (Mean ± SD) [1] | EC (2-fold) [1] [µM] | NO IC50 Rel. to RTA 402 [2] | IC50 [2, 3] [nM] | times more active (NO IC50) than 63183 relative to RTA 402 [2] | times more active (NO IC50) than 63170 relative to RTA 402 [2] | IC50 ([2]; RAW 264.7 cells) [nM] | AREc32 Relative to CC in Same Experiment (Mean ± SD) ([1]; comparison compound CC4, average of ratios from three replicate experiments) |
| --- | --- | --- | --- | --- | --- | --- | --- | --- |
| CC1(C)CC[C@]2(CN3CC(O)C3)CC[C@]3(C)C(O)(C(=O)C=C4[C@@]5(C)C=C(C#N)C(=O)C(C)(C)[C@@H]5CC[C@]43C)[C@@H]2C1 (some centres unmarked) [Compound T64] | – | – | 1.64 ± 0.16^e fold | 3.82 ± 1.76 | – | – | – | – |
| C=CC(=O)N[C@]12CCC(C)(C)C[C@H]1[C@H]1C(=O)C=C3[C@@]4(C)C=C(C#N)C(=O)C(C)(C)[C@@H]4CC[C@@]3(C)[C@]1(C)CC2 [Compound 63183, reference compound] | – | – | 1.35 fold | 4 | – | – | 2.39 | – |
| CC1(C)CC[C@]2(n3nccc3C(F)(F)F)CC[C@]3(C)[C@H](C(=O)C=C4[C@@]5(C)C=C(C#N)C(=O)C(C)(C)[C@@H]5CC[C@]43C)[C@@H]2C1 [Compound T59] | – | – | 12.08 ± 2.93^d fold | 49.5 ± 13.8 | – | – | – | – |
| CN1CC(=O)N([C@]23CCC(C)(C)C[C@H]2[C@H]2C(=O)C=C4[C@@]5(C)C=C(C#N)C(=O)C(C)(C)[C@@H]5CC[C@@]4(C)[C@]2(C)CC3)CC1=O [Compound T54] | – | – | 16.18 ± 3.50^e fold | 64.6 ± 19.7 | – | – | – | – |
| CNC(=O)N[C@]12CCC(C)(C)C[C@H]1[C@H]1C(=O)C=C3[C@@]4(C)C=C(C#N)C(=O)C(C)(C)[C@@H]4CC[C@@]3(C)[C@]1(C)CC2 [Compound 63172, reference compound] | – | – | 7.73 fold | 21.6 | – | – | – | – |
| CN1CCN([C@]23CCC(C)(C)C[C@H]2[C@H]2C(=O)C=C4[C@@]5(C)C=C(C#N)C(=O)C(C)(C)[C@@H]5CC[C@@]4(C)[C@]2(C)CC3)CC1=O [Compound T61] | – | – | 3.18 ± 0.67^d fold | 13.2 ± 3.78 | – | – | – | – |
| CC1(C)CC[C@]2(n3cc[nH]c3=O)CC[C@]3(C)[C@H](C(=O)C=C4[C@@]5(C)C=C(C#N)C(=O)C(C)(C)[C@@H]5CC[C@]43C)[C@@H]2C1 [Compound T45] | – | – | 4.02 ± 0.61^d fold | 16.4 ± 2.94 | – | – | – | – |
| CC1(C)CC[C@]2(CN3C(=O)CCN3C(=O)OC(C)(C)C)CC[C@]3(C)[C@H](C(=O)C=C4[C@@]5(C)C=C(C#N)C(=O)C(C)(C)[C@@H]5CC[C@]43C)[C@@H]2C1 [Compound T50] | – | – | 1.17 ± 0.18^d fold | 4.82 ± 1.3 | – | – | – | – |
| CC1(C)CC[C@]2(NC(=O)C3CC3)CC[C@]3(C)[C@H](C(=O)C=C4[C@@]5(C)C=C(C#N)C(=O)C(C)(C)[C@@H]5CC[C@]43C)[C@@H]2C1 [Compound T68] | – | – | 6.51 ± 1.38^i fold | – | – | – | 11.4 ± 5.17 | – |
| CC1(C)CC[C@]2(N3CCNC3=O)CC[C@]3(C)[C@H](C(=O)C=C4[C@@]5(C)C=C(C#N)C(=O)C(C)(C)[C@@H]5CC[C@]43C)[C@@H]2C1 [Compound T30] | – | – | 3.68 ± 0.33^d fold | 15 ± 2.92 | – | – | – | – |
| CCC(=O)N[C@]12CCC(C)(C)C[C@H]1[C@H]1C(=O)C=C3[C@@]4(C)C=C(C#N)C(=O)C(C)(C)[C@@H]4CC[C@@]3(C)[C@]1(C)CC2 [Compound 63189, reference compound] | – | – | 4.06 fold | 7.2 | – | – | – | – |
| C[C@@H]1C(=O)C(C#N)=C[C@]2(C)C3=CC(=O)[C@@H]4[C@@H]5CC(C)(C)CC[C@]5(NC(=O)C5CC5)CC[C@@]4(C)[C@]3(C)CC[C@@H]12 [Compound 63866, reference compound] | – | – | 1.16 fold | 1.43 | – | – | – | – |
| CC(=O)N[C@]12CCC(C)(C)C[C@H]1[C@H]1C(=O)C=C3[C@@]4(C)C=C(C#N)C(=O)C(C)(C)[C@@H]4CC[C@@]3(C)[C@]1(C)CC2 [Compound 63170, reference compound] | – | – | 4.95 fold | 8.45 | – | – | – | – |
| CC1(C)CC[C@]2(c3nn[nH]n3)CC[C@]3(C)[C@H](C(=O)C=C4[C@@]5(C)C=C(C#N)C(=O)C(C)(C)[C@@H]5CC[C@]43C)[C@@H]2C1 [Compound 63229, reference compound] | – | – | >75.85 fold | > 200 | – | – | – | – |
| CC1(C)CC[C@]2(n3ccc(C(F)(F)F)n3)CC[C@]3(C)[C@H](C(=O)C=C4[C@@]5(C)C=C(C#N)C(=O)C(C)(C)[C@@H]5CC[C@]43C)[C@@H]2C1 [Compound T60] | – | – | 11.32 ± 1.49^e fold | 45.1 ± 10.6 | – | – | – | – |

Source: patent publication US20230111914A1, “SYNTHETIC TRITERPENOIDS WITH NITROGEN-BASED SUBSTITUENTS AT C-17 AND METHODS OF USE THEREOF” (REATA PHARMACEUTICALS, INC., priority 2019, published 2023)
